According to patent US8067454B2, “Thio-substituted Anthra [1, 2-d] imidazole- 6, 11-dione derivatives, preparation method and application thereof” (National Defense Medical Center, priority 2010, dated 2011):

What was measured:
HL-60(TB) = assay: NCI 60-cell drug screen, Leukemia HL-60(TB); format: cell-based, human; conditions: 1.00E−5 Molar
MOLT-4 = assay: NCI 60-cell drug screen, Leukemia MOLT-4; format: cell-based, human; conditions: 1.00E−5 Molar
RPMI-8226 = assay: NCI 60-cell drug screen, Leukemia RPMI-8226; format: cell-based, human; conditions: 1.00E−5 Molar
A549/ATCC = assay: NCI 60-cell drug screen, Non-Small Cell Lung Cancer A549/ATCC; format: cell-based, human; conditions: 1.00E−5 Molar
HOP-62 = assay: NCI 60-cell drug screen, Non-Small Cell Lung Cancer HOP-62; format: cell-based, human; conditions: 1.00E−5 Molar
HOP-92 = assay: NCI 60-cell drug screen, Non-Small Cell Lung Cancer HOP-92; format: cell-based, human; conditions: 1.00E−5 Molar
NCI-H23 = assay: NCI 60-cell drug screen, Non-Small Cell Lung Cancer NCI-H23; format: cell-based, human; conditions: 1.00E−5 Molar
NCI-H522 = assay: NCI 60-cell drug screen, Non-Small Cell Lung Cancer NCI-H522; format: cell-based, human; conditions: 1.00E−5 Molar
HCC-2998 = assay: NCI 60-cell drug screen, Colon Cancer HCC-2998; format: cell-based, human; conditions: 1.00E−5 Molar
HCT-15 = assay: NCI 60-cell drug screen, Colon Cancer HCT-15; format: cell-based, human; conditions: 1.00E−5 Molar
SW-620 = assay: NCI 60-cell drug screen, Colon Cancer SW-620; format: cell-based, human; conditions: 1.00E−5 Molar
SF-268 = assay: NCI 60-cell drug screen, CNS Cancer SF-268; format: cell-based, human; conditions: 1.00E−5 Molar
SF-295 = assay: NCI 60-cell drug screen, CNS Cancer SF-295; format: cell-based, human; conditions: 1.00E−5 Molar
SNB-19 = assay: NCI 60-cell drug screen, CNS Cancer SNB-19; format: cell-based, human; conditions: 1.00E−5 Molar
U251 = assay: NCI 60-cell drug screen, CNS Cancer U251; format: cell-based, human; conditions: 1.00E−5 Molar
LOX IMVI = assay: NCI 60-cell drug screen, Melanoma LOX IMVI; format: cell-based, human; conditions: 1.00E−5 Molar
MALME-3M = assay: NCI 60-cell drug screen, Melanoma MALME-3M; format: cell-based, human; conditions: 1.00E−5 Molar
M14 = assay: NCI 60-cell drug screen, Melanoma M14; format: cell-based, human; conditions: 1.00E−5 Molar
SK-MEL-2 = assay: NCI 60-cell drug screen, Melanoma SK-MEL-2; format: cell-based, human; conditions: 1.00E−5 Molar
SK-MEL-28 = assay: NCI 60-cell drug screen, Melanoma SK-MEL-28; format: cell-based, human; conditions: 1.00E−5 Molar
UACC-257 = assay: NCI 60-cell drug screen, Melanoma UACC-257; format: cell-based, human; conditions: 1.00E−5 Molar
UACC-62 = assay: NCI 60-cell drug screen, Melanoma UACC-62; format: cell-based, human; conditions: 1.00E−5 Molar
OVCAR-4 = assay: NCI 60-cell drug screen, Ovarian Cancer OVCAR-4; format: cell-based, human; conditions: 1.00E−5 Molar
OVCAR-5 = assay: NCI 60-cell drug screen, Ovarian Cancer OVCAR-5; format: cell-based, human; conditions: 1.00E−5 Molar
OVCAR-8 = assay: NCI 60-cell drug screen, Ovarian Cancer OVCAR-8; format: cell-based, human; conditions: 1.00E−5 Molar
NCI/ADR-RES = assay: NCI 60-cell drug screen, Ovarian Cancer NCI/ADR-RES; format: cell-based, human; conditions: 1.00E−5 Molar
Method: In brief, cellular protein levels were determined after 48 hours of drug exposure by sulforhodamine B colorimetry. Through the use of a time 0 cell control, the cell growth can be determined for each cell line thus allowing calculations of the 50% growth inhibitory concentration (GI50), the total growth inhibition (TGI), and the 50% lethal concentration (LC50). Comparison to plates not exposed to drug permits determination of concentration and times of exposure conferring 50% net growth inhibition (GI50), TGI, and 50% cell kill (LC50).
From the data analysis it follows that approximately 95% of the actives (potent anticancer drugs) from the 60 cell line screen can be identified. By these criteria, 6 compounds (each with its certification number, refer to Table 2) of the invention were reported that having anticancer activity.
The screening system in United State National Cancer Institute (NCI) consists of 60 kinds of different human cancer cells, which can be used to assay the growth-inhibiting ability or cell toxicity of a compound against various cancer and tumor at a certain concentration.
NCI had selected 6 compounds f1-0, f1-1, f3-1, f1-11, f1-2 and f1-15 as test compounds (Table 2). Among these compounds, compound f1-1 was effective against renal cancer cell strain CAKI-1, and could achieve an inhibition effect on the growth of said cancer cell up to −8.01. Compound f1-11 could achieve inhibiting effects against leukemia cell line CCRF-CEM and RPMI-8226, up to −15.39 and −60.17, respectively. Compound f1-2 was effective against central nervous system cancer cell line SNB-75, and could achieve an effect of inhibiting said cancer cell growth up to −9.55. Compound f1-15 was effective against leukemia (blood cancer) cell line K-562, MOLT-4, and RPMI-8226, and could achieve effects of inhibiting said cancer cells growth up to −31.59, −2.90 and −13.69, respectively. Further, compound f1-15 was effective also against renal cancer cell line CAKI-1, and could achieve an effect of inhibiting said cancer cell growth up to −14.89.

SK-OV-3 = assay: NCI 60-cell drug screen, Ovarian Cancer SK-OV-3; format: cell-based, human; conditions: 1.00E−5 Molar
786-0 = assay: NCI 60-cell drug screen, Renal Cancer 786-0; format: cell-based, human; conditions: 1.00E−5 Molar
A498 = assay: NCI 60-cell drug screen, Renal Cancer A498; format: cell-based, human; conditions: 1.00E−5 Molar
ACHN = assay: NCI 60-cell drug screen, Renal Cancer ACHN; format: cell-based, human; conditions: 1.00E−5 Molar
RXF 393 = assay: NCI 60-cell drug screen, Renal Cancer RXF 393; format: cell-based, human; conditions: 1.00E−5 Molar
SN12C = assay: NCI 60-cell drug screen, Renal Cancer SN12C; format: cell-based, human; conditions: 1.00E−5 Molar
UO-31 = assay: NCI 60-cell drug screen, Renal Cancer UO-31; format: cell-based, human; conditions: 1.00E−5 Molar
PC-3 = assay: NCI 60-cell drug screen, Prostate Cancer PC-3; format: cell-based, human; conditions: 1.00E−5 Molar
DU-145 = assay: NCI 60-cell drug screen, Prostate Cancer DU-145; format: cell-based, human; conditions: 1.00E−5 Molar
MCF7 = assay: NCI 60-cell drug screen, Breast Cancer MCF7; format: cell-based, human; conditions: 1.00E−5 Molar
T-47D = assay: NCI 60-cell drug screen, Breast Cancer T-47D; format: cell-based, human; conditions: 1.00E−5 Molar
GBM8401 = assay: MTT assay, GBM8401 tumor cell; conditions: for Cell survival rate (%) GBM8401: concentration 10 μM, tumor cell
GBM8901 = assay: MTT assay, GBM8901 tumor cell; conditions: for Cell survival rate (%) GBM8901: concentration 10 μM, tumor cell

SMILES: CCCSc1nc2ccc3c(c2[nH]1)C(=O)c1ccccc1C3=O [f1-2, 2-(propylthio)-1H-anthra[1,2-d]imidazole-6,11-dione]
- Growth Percent, HL-60(TB) (HL-60(TB)): 74.23%
- Growth Percent, MOLT-4 (MOLT-4): 68.13%
- Growth Percent, RPMI-8226 (RPMI-8226): 71.75%
- Growth Percent, A549/ATCC (A549/ATCC): 59.15%
- Growth Percent, HOP-62 (HOP-62): 59.09%
- Growth Percent, HOP-92 (HOP-92): 17.25%
- Growth Percent, NCI-H23 (NCI-H23): 69.80%
- Growth Percent, NCI-H522 (NCI-H522): 72.38%
- Growth Percent, HCC-2998 (HCC-2998): 81.92%
- Growth Percent, HCT-15 (HCT-15): 67.65%
- Growth Percent, SW-620 (SW-620): 104.18%
- Growth Percent, SF-268 (SF-268): 47.81%
- Growth Percent, SF-295 (SF-295): 37.25%
- Growth Percent, SNB-19 (SNB-19): 82.03%
- Growth Percent, U251 (U251): 62.95%
- Growth Percent, LOX IMVI (LOX IMVI): 62.57%
- Growth Percent, MALME-3M (MALME-3M): 88.24%
- Growth Percent, M14 (M14): 89.99%
- Growth Percent, SK-MEL-2 (SK-MEL-2): 79.33%
- Growth Percent, SK-MEL-28 (SK-MEL-28): 92.59%
- Growth Percent, UACC-257 (UACC-257): 86.31%
- Growth Percent, UACC-62 (UACC-62): 51.07%
- Growth Percent, OVCAR-4 (OVCAR-4): 42.16%
- Growth Percent, OVCAR-5 (OVCAR-5): 99.67%
- Growth Percent, OVCAR-8 (OVCAR-8): 44.68%
- Growth Percent, NCI/ADR-RES (NCI/ADR-RES): 50.22%
- Growth Percent, SK-OV-3 (SK-OV-3): 38.92%
- Growth Percent, 786-0 (786-0): 21.82%
- Growth Percent, A498 (A498): 57.26%
- Growth Percent, ACHN (ACHN): 27.16%
- Growth Percent, RXF 393 (RXF 393): 20.07%
- Growth Percent, SN12C (SN12C): 80.41%
- Growth Percent, UO-31 (UO-31): 24.49%
- Growth Percent, PC-3 (PC-3): 66.76%
- Growth Percent, DU-145 (DU-145): 69.29%
- Growth Percent, MCF7 (MCF7): 58.97%
- Growth Percent, T-47D (T-47D): 53.72%
- Cell survival rate (%) GBM8401 (GBM8401): 62 ± 18%
- Cell survival rate (%) GBM8901 (GBM8901): 62 ± 7%

SMILES: O=C1c2ccccc2C(=O)c2c1ccc1nc3n(c21)CCS3 [f3-1, 2-(2-N-ethylthio)-1H-anthra[1,2-d]imidazole-6,11-dione]
- Growth Percent, HL-60(TB) (HL-60(TB)): 78.84%
- Growth Percent, MOLT-4 (MOLT-4): 58.39%
- Growth Percent, RPMI-8226 (RPMI-8226): 71.65%
- Growth Percent, A549/ATCC (A549/ATCC): 81.15%
- Growth Percent, HOP-62 (HOP-62): 85.26%
- Growth Percent, HOP-92 (HOP-92): 88.67%
- Growth Percent, NCI-H23 (NCI-H23): 84.29%
- Growth Percent, NCI-H522 (NCI-H522): 80.62%
- Growth Percent, HCC-2998 (HCC-2998): 94.76%
- Growth Percent, HCT-15 (HCT-15): 57.15%
- Growth Percent, SW-620 (SW-620): 69.29%
- Growth Percent, SF-268 (SF-268): 56.15%
- Growth Percent, SF-295 (SF-295): 78.56%
- Growth Percent, SNB-19 (SNB-19): 74.47%
- Growth Percent, U251 (U251): 72.48%
- Growth Percent, LOX IMVI (LOX IMVI): 65.93%
- Growth Percent, MALME-3M (MALME-3M): 87.59%
- Growth Percent, M14 (M14): 78.50%
- Growth Percent, SK-MEL-2 (SK-MEL-2): 99.88%
- Growth Percent, SK-MEL-28 (SK-MEL-28): 109.36%
- Growth Percent, UACC-257 (UACC-257): 80.59%
- Growth Percent, UACC-62 (UACC-62): 73.06%
- Growth Percent, OVCAR-4 (OVCAR-4): 89.29%
- Growth Percent, OVCAR-5 (OVCAR-5): 105.31%
- Growth Percent, OVCAR-8 (OVCAR-8): 75.40%
- Growth Percent, NCI/ADR-RES (NCI/ADR-RES): 84.08%
- Growth Percent, SK-OV-3 (SK-OV-3): 87.43%
- Growth Percent, 786-0 (786-0): 92.44%
- Growth Percent, A498 (A498): 73.67%
- Growth Percent, ACHN (ACHN): 59.35%
- Growth Percent, RXF 393 (RXF 393): 46.50%
- Growth Percent, SN12C (SN12C): 74.93%
- Growth Percent, UO-31 (UO-31): 45.79%
- Growth Percent, PC-3 (PC-3): 93.92%
- Growth Percent, DU-145 (DU-145): 68.84%
- Growth Percent, MCF7 (MCF7): 64.78%
- Growth Percent, T-47D (T-47D): 73.06%
- Cell survival rate (%) GBM8401 (GBM8401): 42 ± 16%
- inhibitory effect against tumor cell GBM8401 (GBM8401; survival rate less than 80%): exhibited inhibitory effect against tumor cell GBM8401
- Cell survival rate (%) GBM8901 (GBM8901): 37 ± 4%
- inhibitory effect against tumor cell GBM8901 (GBM8901; survival rate less than 80%): exhibited inhibitory effect against tumor cell GBM8901
